Patent US6649595B2, “Regulation of biological events using novel compounds” (ARIAD Gene Therapeutics, Inc., priority 1995, dated 2003)
Like-named read-outs stand apart in the source and are kept apart here.

Experiments:
[1] = tested on: HT1080 cells expressing M30 / M31 (FRAP-FKBP-Fas) constructs; experiment: Rapamycin-regulated apoptosis of stably transfected HT1080 cells; type: cell-based, human; settings: with 50 ng/ml actinomycin D, about 20 hours, alamar blue
Description: (f) Rapamycin-regulated apoptosis of stable transsfected human HT1080 cells in culture XbaI-BamHI fragments from constructs A30 and A31 (d, table 1) were cloned into pCM to generate M30 and M31, constructs that direct the expression of MT5FasSE and MT6FasSE, where M denotes a myristoylation domain (see this example sections A.1. and A.8.) and other abbreviations are as described in d, table 1. EcoRI-BamHI fragments containing these expression cassettes were then cloned into the retroviral vector pSMN3 (Example 7). […] HT1080 cells were infected with viral stock and selected with G418.
The media was removed and replaced with 100 μl of media containing 10% alamar blue dye. Plates were incubated as before, and the extent of cell viability assessed periodically by spectrophotometric determination of OD at 570 nm and 600 nm on a microtiter plate reader. Typically reading was continued until control (untreated) wells are at OD 0.2-0.4 after subtraction of blank.

[2] = tested on: transfected HT1080 cells (hGH target gene) transplanted into nu/nu mice; experiment: Rapamycin-dependent production of hGH in mice; type: in vivo
Description: In Vivo Methods: Animals, husbandry, and general procedures. Male nu/nu mice were obtained from Charles River Laboratories (Wilmington, Mass.) and allowed to acclimate for five days prior to experimentation. They were housed under sterile conditions, were allowed free access to sterile food and sterile water throughout the entire experiment, and were handled with sterile techniques throughout.
To transplant transiently transfected cells into mice, 2×10^6 transfected HT1080 cells, were suspended in […] PBS/0.1% BSA/0.1% glucose buffer, and administered into four intramuscular sites (approximately […] per site) on the haunches and flanks of the animals. Control mice received equivalent volume injections of buffer alone.
The accuracy of the dosing solutions was confirmed by HPLC analysis prior to intravenous administration into the tail veins. […] In addition, other control mice, bearing transfected cells, received only the rapamycin vehicle.
Blood was collected by either anesthetizing or sacrificing mice via CO2 inhalation. Anesthetized mice were used to collect […] of blood by cardiac puncture. The mice were revived and allowed to recover for subsequent blood collections. Sacrificed mice were immediately exsanguinated. Blood samples were allowed to clot for 24 hours, at 4° C., and sera were collected following centrifugation at 1000×g for 15 minutes. Serum hGH was measured by the Boehringer Mannheim non-isotopic sandwich ELISA (Cat No. 1 585 878). […] Recommended assay instructions were followed.
Mice were administered transfected HT1080 cells as described above. […] The four remaining doses were given under anesthesia, immediately subsequent to blood collection, at 16, 32, 48, and 64 hours. […] Experimental animals and their control counterparts were each assigned to one of two groups. Each of the two experimental groups and two control groups received identical drug or vehicle treatments, respectively. The groups differed in that blood collection times were alternated between the two groups to reduce the frequency of blood collection for each animal.

[3] = Rapamycin pharmacokinetics in mice; type: in vivo
FKBPwt = target: T1, FKBPwt (Homo sapiens, UniProt P62942); experiment: Competitive fluorescence polarization (FP) binding assay of rapalogs to FKBP; settings: for IC50: read-out: FKBPwt FP binding assay IC50
T1 construct: made in house
Description: Serial 10-fold dilutions of each analog were prepared in 100% ethanol in glass vials and stored on ice. All other manipulations were performed at room temperature. […] Finally, a probe solution was prepared containing 10 nM AP1491 in 0.1% ethanol/FP buffer, and 100 μl added to each well with mixing.
The plates were stored covered in the dark for approximately 30 min to permit equilibration and then the fluorescence polarization of the sample in each well read on a Jolley FPM-2 FP plate reader (Jolley Consulting and Research, Inc., Grayslake, Ill.) in accordance with the manufacturer's recommendations. The mean polarization (mP units)
for each competitor concentration was usually converted to % total binding by reference to the control values and plotted (y) vs. log molar final concentration of competitor (x). Non-linear least square analysis was used to fit the curve and extract the IC50 using the following equation:
y=M1+(M4−M1)/(1+exp(M2*(M3−x)))
where M3 is the IC50. For incomplete curves the IC50 was determined by interpolation.

[4] = =IC50/IC50 of rapamycin, C7 rapalogs

T1 sequence (P62942 whole entry): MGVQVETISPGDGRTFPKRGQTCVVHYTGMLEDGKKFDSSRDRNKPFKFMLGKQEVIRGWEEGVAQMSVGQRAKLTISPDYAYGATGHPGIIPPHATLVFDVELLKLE

CO[C@H]1C[C@@H]2CC[C@@H](C)[C@@](O)(O2)C(=O)C(=O)N2CCCC[C@H]2C(=O)O[C@H]([C@H](C)C[C@@H]2CC[C@@H](O)[C@H](OC)C2)CC(=O)[C@H](C)/C=C(\C)[C@@H](O)[C@@H](OC)C(=O)[C@H](C)C[C@H](C)/C=C/C=C/C=C/1C [rapamycin, Rapamycin]
survival of stably transfected cells [1]: potently reduced | production of hGH in mice ([2]; 0.01-10.0 mg/kg intravenous, serum 17 hours after dosing): dose-responsive production of hGH | time after treatment at which serum hGH remained detectable ([2]; single 10.0 mg/kg dose): 42 h | time at which serum hGH was observed ([2]; single 10.0 mg/kg dose): within four hours | time of peak serum hGH ([2]; single 10.0 mg/kg dose): eight hours | peak serum hGH level ([2]; single 10.0 mg/kg dose, eight hours): over one hundred times the sensitivity limit of the hGH ELISA | predicted steady-state trough concentration of rapamycin ([3]; 10.0 mg/kg at 16-hour intervals, after two doses): 1.7 µg/mL | half-life ([3]; nu/nu, mouse, in vivo, mice, intravenous): 4.6 h

COC(=O)N[C@@H]1C[C@@H]2CC[C@@H](C)[C@@](O)(O2)C(=O)C(=O)N2CCCC[C@H]2C(=O)O[C@H]([C@H](C)C[C@@H]2CC[C@@H](O)[C@H](OC)C2)CC(=O)[C@H](C)/C=C(\C)[C@@H](O)[C@@H](OC)C(=O)[C@H](C)C[C@H](C)/C=C/C=C/C=C/1C [Compound 31]
fold loss in affinity (cf rapamycin) (FKBPwt; [4]): 1.1 | IC50 (FKBPwt; C7 rapalogs): 2.6 nM

CO[C@H]1C[C@@H]2CC[C@@H](C)[C@@](O)(O2)C(=O)C(=O)N2CCCC[C@H]2C(=O)O[C@H]([C@H](C)C[C@@H]2CC[C@@H](O)[C@H](OC)C2)C/C(=N\OCc2ccccc2)[C@H](C)/C=C(\C)[C@@H](O)[C@@H](OC)C(=O)[C@H](C)C[C@H](C)/C=C/C=C/C=C/1C [Compound 12, apamycin (E and Z)-24-(O-benzyloxime)]
fold loss in affinity (vs rapamycin) (FKBPwt; =IC50/IC50 of rapamycin, C24 analogs, Table 4): 616 | IC50 (FKBPwt; rapamycin C24 analogs, Table 4): 1420 nM

CO[C@@H]1C[C@H](C[C@@H](C)[C@@H]2CC(=O)[C@H](C)/C=C(\C)[C@@H](O)[C@@H](OC)C(=O)[C@H](C)C[C@H](C)/C=C/C=C/C=C(\C)[C@H](c3c[nH]c4ccccc34)C[C@@H]3CC[C@@H](C)[C@@](O)(O3)C(=O)C(=O)N3CCCC[C@H]3C(=O)O2)CC[C@H]1O [Compound 45]
fold loss in affinity (cf rapamycin) (FKBPwt; [4]): 2.6 | IC50 (FKBPwt; C7 rapalogs): 5.9 nM
